# Data taken from publication PMC6270209, “Synthesis, Antimycobacterial Activity and In Vitro Cytotoxicity of 5-Chloro-N-phenylpyrazine-2-carboxamides” (Molecules, 2013).
# Like-named read-outs stand apart in the source and are kept apart here.
# Columns and labels:
# [1] = system: M. avium ssp. avium Chester CNCTC My 80/72; assay: In vitro antimycobacterial activity, microdilution panel method (MIC); assay type: cell-based, Mycobacterium avium; details: Mycobacterium avium
# [2] = system: M. tuberculosis H37Rv CNCTC My 331/88; assay: as above; assay type: cell-based, Mycobacterium tuberculosis; details: for MIC: Mycobacterium tuberculosis, H37RV
# M. avium CNCTC My 152/73 = assay: as above; assay type: cell-based, Mycobacterium avium; details: Mycobacterium avium
# in vitro = details: human
# HepG2 cells = details: SI calculated for M. tbc as IC50 (HepG2)/MIC (in μM) using the lower MIC values (Table 1)
# [3] = system: M. kansasii Hauduroy CNCTC My 235/80; assay: In vitro antimycobacterial activity, microdilution panel method (MIC); assay type: cell-based, Mycobacterium kansasii; details: for MIC: Mycobacterium kansasii
# [4] = M. tuberculosis H37Rv, retest with extended dilution scale up to 0.39 µg/mL, read-out: Antimycobacterial activity MIC, M. tbc (confirmation retest, value in parentheses)
# [5] = pH 5.6, M. tuberculosis H37Rv, primary test, dilution scale 100–[…], Šula's medium pH 5.6, read-out: Antimycobacterial activity MIC, M. tbc
# [6] = M. kansasii Hauduroy CNCTC My 235/80
Structure (SMILES),MIC [1] [µg/mL],"MIC [2, 4] [µg/mL]","MIC [2, 5] [µg/mL]",MIC (M. avium CNCTC My 152/73) [µg/mL],IC50 (in vitro) [µM],Cytotoxicity SI (HepG2 cells),Activity against M. kansasii (in words) [3],"MIC [3, 6] [µg/mL]","Antimycobacterial activity MIC, M. kansasii [3, 6] [µg/mL]",Antimycobacterial activity against M. tbc H37Rv (in words) [2]
"O=C(Nc1ccccc1O)c1cnc(Cl)cn1 [Compound 2, 5-Chloro-N-(2-hydroxyphenyl)pyrazine-2-carboxamide]",> 100,0.78,3.13,> 100,30,2.39,,,,
"O=C(Nc1cccc(O)c1)c1cnc(Cl)cn1 [Compound 3, 5-Chloro-N-(3-hydroxyphenyl)pyrazine-2-carboxamide]",> 100,,6.25,100,32.1,1.28,inactive,50,,
"Cc1ccc(C)c(NC(=O)c2cnc(Cl)cn2)c1 [Compound 6, 5-Chloro-N-(2,5-dimethylphenyl)pyrazine-2-carboxamide]",> 100,1.56,1.56,> 100,11.7,1.96,,> 100,,
"CCc1ccc(NC(=O)c2cnc(Cl)cn2)cc1 [Compound 7, 5-Chloro-N-(4-ethylphenyl)pyrazine-2-carboxamide]",> 100,0.78,1.56,> 100,7.17,2.41,,,,
"CC(C)c1ccc(NC(=O)c2cnc(Cl)cn2)cc1 [Compound 8, 5-Chloro-N-(4-isopropylphenyl)pyrazine-2-carboxamide]",> 100,,1.56,> 100,14.4,2.55,,,,
"O=C(Nc1cccc(F)c1)c1cnc(Cl)cn1 [Compound 10, 5-Chloro-N-(3-fluorophenyl)pyrazine-2-carboxamide]",> 100,,6.25,> 100,,,,12.5,,
"O=C(Nc1ccc(F)cc1F)c1cnc(Cl)cn1 [Compound 11, 5-Chloro-N-(2,4-difluorophenyl)pyrazine-2-carboxamide]",> 50,,3.13,> 50,,,,6.25,,
"O=C(Nc1ccc(Cl)c(Cl)c1)c1cnc(Cl)cn1 [Compound 14, 5-Chloro-N-(3,4-dichlorophenyl)pyrazine-2-carboxamide]",> 100,,3.13,> 100,9.1,0.88,,> 100,,
"O=C(Nc1cccc(Br)c1)c1cnc(Cl)cn1 [Compound 16, 5-Chloro-N-(3-bromophenyl)pyrazine-2-carboxamide]",> 100,,25,> 100,,,,25,,
"Cc1ccc(F)cc1NC(=O)c1cnc(Cl)cn1 [Compound 19, 5-Chloro-N-(5-fluoro-2-methylphenyl)pyrazine-2-carboxamide]",> 100,6.25,3.13,> 100,,,,25,,
"O=C(Nc1cc([N+](=O)[O-])ccc1O)c1cnc(Cl)cn1 [Compound 23, 5-Chloro-N-(2-hydroxy-5-nitrophenyl)pyrazine-2-carboxamide]",50,1.56,1.56,50,1.52,0.29,,,,
"O=C(Nc1ccccc1[N+](=O)[O-])c1cnc(Cl)cn1 [Compound 24, 5-Chloro-N-(2-nitrophenyl)pyrazine-2-carboxamide]",> 100,,12.5,> 100,,,,,,
"N#Cc1cccc(NC(=O)c2cnc(Cl)cn2)c1 [Compound 26, 5-Chloro-N-(3-cyanophenyl)pyrazine-2-carboxamide]",> 50,,25,> 50,,,,3.13,≤ 6.25,low activity
"N#Cc1ccc(NC(=O)c2cnc(Cl)cn2)cc1 [Compound 27, 5-Chloro-N-(4-cyanophenyl)pyrazine-2-carboxamide]",> 100,,> 100,> 100,,,,> 100,,inactive
